Test results reported in US4140707A, “Malonato platinum anti-tumor compounds” (priority 1977, dated 1979).

How the values were obtained:
[1] = test system: Sarcoma 180; test: Antitumor activity, solid Sarcoma 180 (Table I), T/C tumor weight ratio, sacrifice day 10; assay type: in vivo, female Swiss white mice
Protocol: The compounds of the invention were tested for anti-tumor activity using our standard screening tumor, solid sarcoma 180 tumer in female Swiss white mice, following standard protocols for this testing as set by the National Cancer Institute. (Cancer Chemotherapy Rep., 25(1962)).
For these tests an S 180 tumor taken from a sacrificed mouse was disected free of superfluous tissue and cut under sterile conditions into approximately 10 milligram size pieces. These tissue pieces were then implanted by trocar in the left axillary region, subcutaneously, in new mice. The mice were, on the average, approximately four weeks old and weighed 18-20 grams. Taking day 0 as the day of implant, the animals were sacrificed on day 10. The tumors were excised and weighed and the ratio of the weights of the tumors in mice in the treated animals to the control set of animals was obtained. This ratio, multiplied by 100, is given as the T/C ratio in Table I.
For the first set of tests the coordination compound was freshly dissolved in sterile distilled water and injected intraperitoneally on day 1 into each of the test mice. The volume of the injection was usually 1/2 ml. In some cases, in order to get an active dose into the animal where the chemical was not soluble in this amount of solvent, a fine dispersion was prepared of the dose needed for the test. Thus, some of our test results were obtained on animals where a slurry of the compound was injected. These are so noted in Table I below. In addition, for some of the compounds, there was injected about 1 ml of solution, either in one single injection, or in 2 injections given a few hours apart of 1/2 ml each. These injections were initially given in 4 different dose levels for each new compound with 6 mice in each dose level. The tests covered a dose range from a low ineffective dose, to an upper dose level which produced some deaths within the time period of the experiment.

[2] = test system: L1210; test: Confirmatory antitumor activity at the National Cancer Institute, L1210 (Table IV); assay type: in vivo, Mice
Source text: Samples of the malonato diammine and malonato ethylene diamino complexes of platinum(II) were submitted to the Drug Research and Development Branch of the National Cancer Institute for screening for antitumor activity against the L1210 tumor in mice. They confirm the activity of the compounds of the invention.

[3] = test system: Sarcoma 180; test: Large Sarcoma 180 regressions (Table II), injection day 8, observed approximately 60 days; assay type: in vivo, female Swiss white mice; conditions: single i.p. day 8, H2O solution
Protocol: In addition to the day 1 injections described above, in a number of cases injections were delayed until day 8 of tumor growth. In these cases the tumor was usually at least larger than 1/2 gm, as estimated by palpation. The animals were then injected and observed for a period of approximately 60 days. Activity was measured by the number of animals whose tumors had regressed to the vanishing point, while still allowing the animal to survive for this time period. Such test results are described in TABLE II below.

[4] = test system: Walker 256 Carcinosarcoma; test: Confirmatory antitumor activity, Walker 256 Carcinosarcoma (Table III); assay type: in vivo, Rat; conditions: i.p.
Protocol: (§1) Confirmatory tests of antitumor activity against the Walker 256 Circinosarcoma in rats, and the ADJ/PC6A tumor in mice were conducted. The initial test results are shown in Table III and confirm the potent action of the compounds of the invention against these other tumor systems.

[5] = test system: ADJ/PC6A; test: Confirmatory antitumor activity, ADJ/PC6A (Table III); assay type: in vivo, Mouse; conditions: i.p.
Protocol: as §1

[6] = 30 mg/kg, single i.p. day 1, solution in H2O
[7] = 40 mg/kg, single i.p. day 1, solution in H2O
[8] = 50 mg/kg, single i.p. day 1, solution in H2O
[9] = 60 mg/kg, single i.p. day 1, solution in H2O
[10] = 70 mg/kg, single i.p. day 1, solution in H2O
[11] = 90 mg/kg, single i.p. day 1, solution in H2O
[12] = 80 mg/kg, single i.p. day 1, solution in H2O
[13] = 20 mg/kg, single i.p. day 1, vehicle not noted
[14] = 40 mg/kg, single i.p. day 1, vehicle not noted
[15] = 60 mg/kg, single i.p. day 1, vehicle not noted
[16] = 80 mg/kg, single i.p. day 1, vehicle not noted
[17] = 100 mg/kg, single i.p. day 1, vehicle not noted
[18] = 120 mg/kg, single i.p. day 1, vehicle not noted
[19] = 160 mg/kg, single i.p. day 1, vehicle not noted
[20] = 140 mg/kg, single i.p. day 1, vehicle not noted
[21] = 180 mg/kg, single i.p. day 1, vehicle not noted
[22] = 10 mg/kg, single i.p. day 1, solution in H2O
[23] = 20 mg/kg, single i.p. day 1, solution in H2O
[24] = 45 mg/kg, single i.p. day 1, solution in H2O
[25] = 55 mg/kg, single i.p. day 1, solution in H2O
[26] = 10 mg/kg, single injection day 1 in oil
[27] = 20 mg/kg, single injection day 1 in oil
[28] = 40 mg/kg, single injection day 1 in oil
[29] = dose 4, single injection day 25 in oil
[30] = dose 20, single injection day 25 in oil
[31] = dose 100, single injection day 25 in oil

Question: For `CC1C(=O)[O][Pt]2([NH]CC[NH]2)[O]C1=O` [methylmalonatoethylenediamineplatinum (II)], which “No. of Deaths” value [1, 6] is on record?
Answer: 0

Question: What about the T/C [1, 6] of the same molecule?
Answer: 78

Question: And the “No. of Deaths” value [1, 7]?
Answer: 0

Question: And the T/C [1, 7]?
Answer: 80

Question: What about the “No. of Deaths” value [1, 8] of the same molecule?
Answer: 0

Question: What about the T/C [1, 8] of the same molecule?
Answer: 51

Question: What about the “No. of Deaths” value [1, 9] of the same molecule?
Answer: 0

Question: What about the T/C [1, 9] of the same molecule?
Answer: 26

Question: What about the “No. of Deaths” value [1, 10] of the same molecule?
Answer: 1

Question: What about the T/C [1, 10] of the same molecule?
Answer: 20

Question: And the “No. of Deaths” value [1, 11]?
Answer: 1

Question: And the T/C [1, 11]?
Answer: 4

Question: `CC1C(=O)[O][Pt]([NH2])([NH2])[O]C1=O` [Methylmalonatodiammineplatinum(II)] was tested. Which “No. of Deaths” value [1, 6] did it give?
Answer: 0

Question: What about the T/C [1, 6] of the same molecule?
Answer: 39

Question: What about the “No. of Deaths” value [1, 7] of the same molecule?
Answer: 0

Question: And the T/C [1, 7]?
Answer: 26

Question: And the “No. of Deaths” value [1, 8]?
Answer: 0

Question: And the T/C [1, 8]?
Answer: 35

Question: And the “No. of Deaths” value [1, 9]?
Answer: 0

Question: What about the T/C [1, 9] of the same molecule?
Answer: 6

Question: What about the “No. of Deaths” value [1, 10] of the same molecule?
Answer: 3/6

Question: And the T/C [1, 10]?
Answer: 124

Question: What about the “No. of Deaths” value [1, 12] of the same molecule?
Answer: 6/6

Question: Which “No. of Deaths” value [1, 13] does the source give for `N.N.O=C([O-])C1(C(=O)[O-])CCC1.[Pt+4]` [1,1-cyclobutanedicarboxylate diammineplatinum (II)] here?
Answer: 0

Question: What about the T/C [1, 13] of the same molecule?
Answer: 71

Question: And the “No. of Deaths” value [1, 14]?
Answer: 0

Question: What about the T/C [1, 14] of the same molecule?
Answer: 60

Question: What about the “No. of Deaths” value [1, 15] of the same molecule?
Answer: 0

Question: What about the T/C [1, 15] of the same molecule?
Answer: 38

Question: What about the “No. of Deaths” value [1, 16] of the same molecule?
Answer: 0

Question: What about the T/C [1, 16] of the same molecule?
Answer: 42

Question: What about the “No. of Deaths” value [1, 17] of the same molecule?
Answer: 0

Question: What about the T/C [1, 17] of the same molecule?
Answer: 69

Question: What about the “No. of Deaths” value [1, 18] of the same molecule?
Answer: 0

Question: What about the T/C [1, 18] of the same molecule?
Answer: 18

Question: What about the “No. of Deaths” value [1, 19] of the same molecule?
Answer: 4

Question: And the T/C [1, 19]?
Answer: 62

Question: With `CN.CN.O=C([O-])CC(=O)[O-].[Pt+2]` [malonatobis(methylamine) platinum (II)] as the molecule, how does the “No. of Deaths” value [1, 16] read?
Answer: 0

Question: What about the T/C [1, 16] of the same molecule?
Answer: 58

Question: And the “No. of Deaths” value [1, 17]?
Answer: 0

Question: And the T/C [1, 17]?
Answer: 53

Question: What about the “No. of Deaths” value [1, 18] of the same molecule?
Answer: 0

Question: What about the T/C [1, 18] of the same molecule?
Answer: 28

Question: What about the “No. of Deaths” value [1, 20] of the same molecule?
Answer: 0

Question: What about the T/C [1, 20] of the same molecule?
Answer: 25

Question: And the “No. of Deaths” value [1, 19]?
Answer: 1

Question: And the T/C [1, 19]?
Answer: 17

Question: And the “No. of Deaths” value [1, 21]?
Answer: 1

Question: What about the T/C [1, 21] of the same molecule?
Answer: 19

Question: Which “% Increase in Lifespan” value ([2]; 16.5 mg/kg, i.p. daily days 1-9, repeat test) does the source give for `NCCN.O=C([O-])CC(=O)[O-].[Pt+2]` [malonatoethylenediamineplatinum (II)] here?
Answer: 160%

Question: What about the “% Increase in Lifespan” value ([2]; 25 mg/kg, i.p. daily days 1-9) of the same molecule?
Answer: 160%

Question: And the “No. of Deaths” value [1, 22]?
Answer: 0

Question: What about the T/C [1, 22] of the same molecule?
Answer: 88

Question: What about the “No. of Deaths” value [1, 23] of the same molecule?
Answer: 0

Question: And the T/C [1, 23]?
Answer: 58

Question: And the “No. of Deaths” value [1, 7]?
Answer: 0

Question: And the T/C [1, 7]?
Answer: 18

Question: What about the “No. of Deaths” value [1, 24] of the same molecule?
Answer: 0

Question: What about the T/C [1, 24] of the same molecule?
Answer: 49

Question: And the “No. of Deaths” value [1, 8]?
Answer: 0

Question: And the T/C [1, 8]?
Answer: 35

Question: And the “No. of Deaths” value [1, 25]?
Answer: 0

Question: And the T/C [1, 25]?
Answer: 38

Question: What about the “No. of Deaths” value [1, 9] of the same molecule?
Answer: 3/6

Question: And the T/C [1, 9]?
Answer: 15

Question: And the “No. of Deaths” value [1, 15]?
Answer: 0

Question: What about the T/C [1, 15] of the same molecule?
Answer: 80

Question: And the “No. of Deaths” value [1, 12]?
Answer: 3/6

Question: And the T/C [1, 12]?
Answer: 24

Question: And the “No. of Deaths” value [1, 16]?
Answer: 0

Question: What about the T/C [1, 16] of the same molecule?
Answer: 138

Question: What about the “No. of Deaths” value [1, 17] of the same molecule?
Answer: 0

Question: And the T/C [1, 17]?
Answer: 85

Question: What about the “No. of Deaths” value [1, 18] of the same molecule?
Answer: 0

Question: And the T/C [1, 18]?
Answer: 50

Question: What about the Deaths ([3]; 40 mg/kg) of the same molecule?
Answer: 3

Question: And the “Total Number of Regressions” value ([3]; 40 mg/kg)?
Answer: 3

Question: And the Deaths ([3]; 45 mg/kg)?
Answer: 5

Question: And the “Total Number of Regressions” value ([3]; 45 mg/kg)?
Answer: 1

Question: What about the Deaths ([3]; 50 mg/kg) of the same molecule?
Answer: 4

Question: What about the “Total Number of Regressions” value ([3]; 50 mg/kg) of the same molecule?
Answer: 2

Question: And the Deaths ([3]; 60 mg/kg)?
Answer: 3

Question: What about the “Total Number of Regressions” value ([3]; 60 mg/kg) of the same molecule?
Answer: 3

Question: And the “% Inhibition” value [4, 26]?
Answer: 1%

Question: And the Deaths [4, 26]?
Answer: 0

Question: And the “% Inhibition” value [4, 27]?
Answer: 25%

Question: And the Deaths [4, 27]?
Answer: 0

Question: And the “% Inhibition” value [4, 28]?
Answer: 100%

Question: And the Deaths [4, 28]?
Answer: 0

Question: And the Deaths ([4]; 80 mg/kg, single injection day 1 in oil)?
Answer: 0

Question: And the “% Inhibition” value ([4]; dose 80, single injection day 1 in oil)?
Answer: 100%

Question: What about the Deaths ([4]; dose 160, single injection day 1 in oil) of the same molecule?
Answer: all

Question: And the “% Inhibition” value [5, 29]?
Answer: 1.3%

Question: And the Deaths [5, 29]?
Answer: 0

Question: What about the “% Inhibition” value [5, 30] of the same molecule?
Answer: 94%

Question: What about the Deaths [5, 30] of the same molecule?
Answer: 0

Question: What about the “% Inhibition” value [5, 31] of the same molecule?
Answer: 100%

Question: What about the Deaths [5, 31] of the same molecule?
Answer: 0

Question: And the Deaths ([5]; dose 500, single injection day 25 in oil)?
Answer: all
